From ChEMBL document CHEMBL1201862, “PubChem BioAssay data set” (2004) come the findings set out here.

Each structure is given as a SMILES string.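 All cell lines were grown in 96-well plates and treated with compound for 48 hours. GI50: concentration for 50% inhibition of growth.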 Activity calls are given as the source filed them. Cut-off read from the data, not from the text of the source: active = GI50 up to about 1.1 µM and inactive = higher.

Some test systems named below: DLD-1; CAKI-1; SK-MEL-2; IGROV-1; HOP-62; RPMI-8226; KM-20L2; SN12C; OVCAR-5; NCI-H23; DMS-114; SR; NCI/ADR-RES; MCF7; BT-549; MDA-N; Hs-578T; DU-145; MDA-MB-435; MDA-MB-231.
Common to all, as to assay: inhibition of tumour cell growth, NCI panel, 48 h

With `O=C(NCCCOC(=O)CCCCCCCCC(=O)OCCCNC(=O)NC(=O)c1c[nH]c(=O)[nH]c1=O)NC(=O)c1c[nH]c(=O)[nH]c1=O`, the GI50 with DLD-1, with CAKI-1, with SK-MEL-2, with IGROV-1, in the assay on HOP-62 and in the assay with RPMI-8226 was > 100 µM (inactive) in each case. Further, the GI50 in the assay on KM-20L2 was > 100 µM (inactive); in the assay on SN12C, > 100 µM (inactive); with OVCAR-5, > 100 µM (inactive); in the assay with NCI-H23, 45.1 µM (inactive).

Regarding `COc1ccc2c(c1)CCCN2CCCCCCCCCCN(CCC(C)C)CCC(C)C`, the GI50 in the assay with DLD-1 was 10.5 µM (inactive); in the assay with CAKI-1, 14.7 µM (inactive); in the assay on SK-MEL-2 it was 9.4 µM (inactive); with IGROV-1 it was 12.2 µM (inactive); in the assay with HOP-62, 13.1 µM (inactive); with RPMI-8226 it was 2.26 µM (inactive). The GI50 with KM-20L2 is 10.2 µM (inactive); in the assay with DMS-114, 4.97 µM (inactive); in the assay on OVCAR-5 it was 14.9 µM (inactive); with NCI-H23, 3.25 µM (inactive).

Consider `CCOC(=O)C(=C=C=C(c1ccccc1)c1ccccc1)C(=O)OCC`, for which the GI50 was 18.5 µM (inactive) in the assay on DLD-1; 16.6 µM (inactive) with SK-MEL-2; 18.1 µM (inactive) with IGROV-1; 18.9 µM (inactive) in the assay on HOP-62; 14.1 µM (inactive) in the assay with RPMI-8226; 20.9 µM (inactive) in the assay with KM-20L2. In addition, the GI50 in the assay with DMS-114 is 18.5 µM (inactive); with SN12C it was 20.7 µM (inactive); with OVCAR-5, 18.1 µM (inactive); in the assay on NCI-H23 it was 38.5 µM (inactive).

Consider `O=S(OC12CC3CC(CC(C3)C1)C2)c1cc(Cl)cc(Cl)c1OCc1ccccc1` (stereo unspecified), for which the GI50 in the assay with DLD-1 is > 100 µM (inactive); with SR it was > 100 µM (inactive); with SK-MEL-2 it was > 100 µM (inactive); in the assay on HOP-62, > 100 µM (inactive); with DMS-114 it was 73.8 µM (inactive); in the assay on SN12C it was > 100 µM (inactive). Also, the GI50 in the assay on OVCAR-5 and with NCI-H23 was > 100 µM (inactive) throughout.

With `O=C(Nc1ccc(/N=N/c2ccccc2)cc1)Sc1ccccc1C(=O)O`, the GI50 was > 100 µM (inactive) in the assay on SR; > 100 µM (inactive) in the assay on CAKI-1; > 100 µM (inactive) in the assay with SK-MEL-2; 0.7 µM (active) with IGROV-1; > 100 µM (inactive) in the assay on HOP-62; > 100 µM (inactive) in the assay with RPMI-8226. Besides, the GI50 with KM-20L2, in the assay on SN12C, in the assay on OVCAR-5 and with NCI-H23 was > 100 µM (inactive) throughout.

Regarding `Cn1nc2ccc3nccc(N(CCO)CCO)c3c2n1`, the GI50 in the assay with DLD-1, in the assay with SR, in the assay on CAKI-1, in the assay with SK-MEL-2, in the assay on IGROV-1 and in the assay with HOP-62 was > 100 µM (inactive) throughout. Further, the GI50 with RPMI-8226, with KM-20L2, in the assay on SN12C, in the assay with OVCAR-5 and in the assay on NCI-H23 was > 100 µM (inactive) each time.

`FC(F)(F)c1ccc2c(c1)N(CCCNCCN1CCOCC1)c1ccccc1S2`: the GI50 in the assay with DLD-1 was 16.2 µM (inactive); in the assay with SR it was 6.32 µM (inactive); in the assay on SK-MEL-2, 3.66 µM (inactive); with IGROV-1 it was 15.8 µM (inactive); with HOP-62 it was 12.4 µM (inactive); in the assay on RPMI-8226, 7.19 µM (inactive). Besides, the GI50 in the assay on KM-20L2 is 4.69 µM (inactive); with SN12C, 13.3 µM (inactive); in the assay with OVCAR-5, 11.3 µM (inactive); in the assay with NCI-H23 it was 12.3 µM (inactive).

Regarding `CC(=O)NC1CC2Oc3ccc(C)cc3C(C)(O2)C1O` (stereo unspecified), the GI50 in the assay on DLD-1, with SK-MEL-2, in the assay on IGROV-1, in the assay with HOP-62, with RPMI-8226 and with DMS-114 was > 100 µM (inactive) in each case. In addition, the GI50 with SN12C and in the assay on NCI-H23 was > 100 µM (inactive) in each case.

On to `CCOC(=O)C1Nc2ccc([N+](=O)[O-])cc2[C@H]2OCC[C@@H]12` (stereo partly specified), for which the GI50 in the assay on DLD-1, in the assay with CAKI-1, in the assay with SK-MEL-2, in the assay on IGROV-1, in the assay with HOP-62 and in the assay on KM-20L2 was > 100 µM (inactive) in each case. The GI50 in the assay on DMS-114, in the assay with SN12C, with OVCAR-5 and with NCI-H23 was > 100 µM (inactive) throughout.

Regarding `CCCCS(=O)(=O)Nc1ccc(Nc2c3ccccc3nc3ccccc23)c(OC)c1`, the GI50 was 7.6 µM (inactive) with DLD-1; 0.574 µM (active) in the assay with CAKI-1; 5.36 µM (inactive) with NCI/ADR-RES; 16.9 µM (inactive) with SK-MEL-2; 1.13 µM (inactive) in the assay on MCF7; 5.57 µM (inactive) in the assay on IGROV-1. For the same molecule, the GI50 with HOP-62 is 1.86 µM (inactive); in the assay on RPMI-8226 it was 1.74 µM (inactive); with KM-20L2 it was 3.14 µM (inactive); in the assay with SN12C, 0.828 µM (active); with OVCAR-5, 13.7 µM (inactive); with NCI-H23 it was 1.11 µM (active).

For the molecule `O=c1[nH]c(C2CCCCC2)nc2ccc(Cl)cc12`, the GI50 with SR is > 100 µM (inactive); in the assay with SK-MEL-2 it was > 100 µM (inactive); in the assay on IGROV-1, 41.3 µM (inactive); in the assay with RPMI-8226, > 100 µM (inactive); in the assay with KM-20L2 it was > 100 µM (inactive); in the assay with DMS-114, > 100 µM (inactive). Further, the GI50 in the assay with SN12C, in the assay on OVCAR-5 and with NCI-H23 was > 100 µM (inactive) throughout.

On to `Cc1nc2ccc(S(=O)(=O)NS(=O)(=O)c3ccc(-c4ccccc4)cc3)cc2c(=O)n1NS(=O)(=O)c1ccc(-c2ccccc2)cc1`, for which the GI50 in the assay on SR is > 100 µM (inactive); in the assay with CAKI-1, > 100 µM (inactive); in the assay with NCI/ADR-RES, > 100 µM (inactive); in the assay with SK-MEL-2, > 100 µM (inactive); with MCF7, > 100 µM (inactive); in the assay with IGROV-1, 38.3 µM (inactive). Further, the GI50 in the assay on HOP-62, with RPMI-8226, in the assay on BT-549, in the assay with MDA-N, in the assay on Hs-578T and in the assay on SN12C was > 100 µM (inactive) throughout. Moreover, the GI50 with DU-145, in the assay on MDA-MB-435, in the assay with MDA-MB-231, with OVCAR-5 and in the assay on NCI-H23 was > 100 µM (inactive) throughout.

Take `COc1ccc(/C(Cl)=C(\C=O)c2ccc(Cl)c(Cl)c2)cc1`: the GI50 in the assay on DLD-1 was 10.7 µM (inactive); in the assay with CAKI-1, 9.12 µM (inactive); with SK-MEL-2, 3.52 µM (inactive); in the assay with IGROV-1, 17 µM (inactive); in the assay with HOP-62, 13.3 µM (inactive); with RPMI-8226 it was 2.56 µM (inactive). The GI50 is 11.7 µM (inactive) in the assay on KM-20L2, 4.06 µM (inactive) in the assay on DMS-114, 7.1 µM (inactive) with SN12C and 4.4 µM (inactive) with NCI-H23.

As to `N=C(N)SCCc1ccncc1`, the GI50 in the assay with SR, in the assay on CAKI-1, in the assay with NCI/ADR-RES, in the assay on SK-MEL-2, with MCF7 and in the assay with IGROV-1 was > 100 µM (inactive) throughout. Further, the GI50 in the assay on HOP-62, in the assay on RPMI-8226, with BT-549, in the assay with MDA-N, in the assay with Hs-578T and with SN12C was > 100 µM (inactive) in each case. For the same molecule, the GI50 in the assay with DU-145, in the assay on MDA-MB-435, in the assay with MDA-MB-231, in the assay with OVCAR-5 and in the assay with NCI-H23 was > 100 µM (inactive) in each case.

As for `O=C1/C(=c2\c3ccccc3n3c(=O)c4ccccc4nc23)Nc2ccccc21` [CANDIDINE], the GI50 in the assay on SR is > 89.5 µM (inactive); in the assay on CAKI-1 it was > 100 µM (inactive); in the assay on NCI/ADR-RES, > 100 µM (inactive); with SK-MEL-2 it was > 100 µM (inactive); in the assay with MCF7, > 70.1 µM (inactive); with IGROV-1, > 100 µM (inactive). For the same molecule, the GI50 in the assay with HOP-62 is > 70.5 µM (inactive); in the assay on RPMI-8226, > 100 µM (inactive); in the assay on BT-549, > 100 µM (inactive); in the assay on MDA-N, 18.6 µM (inactive); in the assay on Hs-578T, 29.9 µM (inactive); in the assay on SN12C, > 100 µM (inactive). For the same molecule, the GI50 with DU-145 was > 100 µM (inactive); in the assay on MDA-MB-435, 18.5 µM (inactive); in the assay on MDA-MB-231, > 70.3 µM (inactive); in the assay with OVCAR-5, > 100 µM (inactive); in the assay on NCI-H23 it was > 64.9 µM (inactive).

As to `O=C(O)CSC(CC1(c2ccc(Cl)cc2)NC(=O)CS1)c1ccc(Cl)cc1` (stereo unspecified), the GI50 in the assay with SR is > 100 µM (inactive); in the assay with CAKI-1 it was > 100 µM (inactive); in the assay on NCI/ADR-RES it was > 100 µM (inactive); in the assay with SK-MEL-2, 83.6 µM (inactive); with MCF7, 77.1 µM (inactive); with IGROV-1, > 100 µM (inactive). Further, the GI50 in the assay with HOP-62, in the assay on RPMI-8226, in the assay with BT-549, with MDA-N, with Hs-578T and with SN12C was > 100 µM (inactive) each time. Also, the GI50 in the assay with DU-145, in the assay on MDA-MB-435, in the assay with MDA-MB-231, in the assay on OVCAR-5 and with NCI-H23 was > 100 µM (inactive) in each case.
